Source: article PMC8657792, “Interaction Profiles of Central Nervous System Active Drugs at Human Organic Cation Transporters 1–3 and Human Plasma Membrane Monoamine Transporter” (International Journal of Molecular Sciences, 2021)
Where two headings read alike, the source gives them in different places.

Key:
[1] = target: T1, hOCT2 (Homo sapiens, UniProt O15244); experiment: [3H]MPP+ uptake inhibition assay, HEK293 cells stably expressing hOCT2; type: cell-based
T1 construct: expressed in transfected cells
T1 sequence (O15244 1-555): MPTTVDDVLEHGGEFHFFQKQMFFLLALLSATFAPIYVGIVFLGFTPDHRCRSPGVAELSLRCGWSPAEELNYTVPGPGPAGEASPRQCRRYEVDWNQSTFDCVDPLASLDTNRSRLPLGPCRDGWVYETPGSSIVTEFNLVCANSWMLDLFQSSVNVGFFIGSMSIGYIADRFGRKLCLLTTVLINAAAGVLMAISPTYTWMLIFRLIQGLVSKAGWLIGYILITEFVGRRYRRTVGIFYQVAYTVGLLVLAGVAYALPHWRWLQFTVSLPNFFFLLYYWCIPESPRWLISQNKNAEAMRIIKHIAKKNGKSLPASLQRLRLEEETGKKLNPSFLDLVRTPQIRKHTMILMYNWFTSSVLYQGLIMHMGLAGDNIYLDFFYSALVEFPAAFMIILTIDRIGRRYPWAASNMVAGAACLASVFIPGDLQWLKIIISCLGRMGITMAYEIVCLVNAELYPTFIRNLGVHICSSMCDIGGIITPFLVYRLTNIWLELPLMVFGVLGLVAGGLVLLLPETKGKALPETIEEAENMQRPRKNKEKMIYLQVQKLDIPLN
Experimental: (§1) HEK293 cells were transfected with a plasmid, encoding the transporter of interest and an N-terminal YFP-tag, carried out using jetPRIME ^© (Polyplus Transfection; (VWR International GmbH, Vienna, Austria)) reagent (for a 10 cm dish with 1–2 × 10^6 cells in 10 mL serum containing medium at 60–80% confluency: 500 μ L jetPRIME ^© buffer, 10 μ g DNA and 20 μ L jetPRIME ^© reagent) and selection pressure maintained for two weeks [2, 54, 55]. Subsequently, 500,000 cells were FACS-sorted (fluorescence-activated cell sorting) according to expression level to establish cell lines stably expressing the protein of interest. […] For uptake inhibition assays, cells were cultured at a subconfluent (80–90% density) state in high-glucose Dulbecco’s Modified Eagle Medium (DMEM ), enriched with 10% heat-inactivated Fetal Bovine Serum (FBS) and penicillin/streptomycin (PS; 100 U × 100 mL ^−1 , each). Selection pressure was maintained by the addition of geneticin (50 mg × mL ^−1 ) at 37 ^∘ C and 5% CO 2 in a humidified incubator. At a density of 60,000 cells per well, HEK293 cells expressing the respective transporter were seeded onto poly-D-lysine-coated wells 24 h prior to uptake inhibition experiments in a final volume of 200 μ L per well.
(§2) Prior to the addition of the respective compounds, DMEM was removed from all wells and replaced with 200 μ L of Krebs-HEPES-buffer (KHB; 10 mM HEPES, 120 mM NaCl, 3 mM KCl, 2 mM CaCl 2 , 2 mM MgSO 4 and 20 mM D-glucose, pH adjusted to 7.3) at room temperature. Cells were exposed to a pre-incubation solution containing the compound of interest in the respective concentration (dissolved in Krebs-HEPES-buffer) for 10 min with a total volume of 50 μ L, which was then replaced with a 50 μ L uptake solution containing 0.05 μ M of tritiated 1-methyl-4-phenylpyridinium ([ ^3 H]MPP ^+ ) as substrate, and the compound of interest in respective concentrations, for 10 minutes each. Finally, uptake was terminated by washing with 200 μ L of ice-cold (4 ^∘ C) KHB, after which cells were lysed with 200 μ L of 1% sodium dodecyl sulphate (SDS). After transferring the solution of each well into 6 mL counting vials containing 2 mL of scintillation cocktail, the vials were measured with a beta-scintillation counter for quantification of the uptake of tritiated substrate. […] To obtain specific data, non-specific uptake was assessed in the presence of 100 μ M D22 and subtracted from the total data. The 100% values were defined as uptake in the absence of a tested substance, defining maximal uptake capacity. Inhibitions of the compound of interest were described as a percentage of the maximal uptake capacity.
(§3) Half-maximal inhibitory concentration ( IC50 ) values of each substance were calculated and plotted using GraphPad Prism 8.4.3 (GraphPad Software Inc., San Diego, CA, USA). IC50 was determined by non-linear regression, solving the equation Y=Bottom+(Top−Bottom)/(1+10^X−LogEC50) . […] All data stem from a minimum of three separate experiments (n≥ 3) executed in triplicates and are shown as mean ± SD.

[2] = target: T2, hPMAT (Homo sapiens, UniProt Q7RTT9); experiment: [3H]MPP+ uptake inhibition assay, HEK293 cells stably expressing hPMAT; type: cell-based
T2 construct: expressed in transfected cells
T2 sequence (Q7RTT9 1-530): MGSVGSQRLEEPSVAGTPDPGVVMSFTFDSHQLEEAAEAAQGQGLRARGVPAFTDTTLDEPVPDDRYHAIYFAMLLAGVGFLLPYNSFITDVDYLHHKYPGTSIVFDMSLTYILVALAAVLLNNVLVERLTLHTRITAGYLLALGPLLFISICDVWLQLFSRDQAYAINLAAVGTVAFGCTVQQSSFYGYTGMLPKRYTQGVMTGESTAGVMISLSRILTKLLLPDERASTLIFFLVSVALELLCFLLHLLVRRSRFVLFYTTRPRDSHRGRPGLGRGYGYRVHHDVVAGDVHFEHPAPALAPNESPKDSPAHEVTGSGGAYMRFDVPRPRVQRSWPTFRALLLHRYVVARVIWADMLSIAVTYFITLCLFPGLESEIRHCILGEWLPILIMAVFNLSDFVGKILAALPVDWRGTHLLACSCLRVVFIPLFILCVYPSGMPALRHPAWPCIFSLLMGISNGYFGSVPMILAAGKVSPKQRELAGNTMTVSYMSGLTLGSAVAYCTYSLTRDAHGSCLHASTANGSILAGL
Experimental: as §1, §2, §3

[3] = target: T3, hOCT3 (Homo sapiens, UniProt O75751); conditions: Table S1, supplementary reference list, cited from earlier work; for Ki: read-out: IC50 literature hOCT3 (Ki), Ki values
T3 construct: expressed in transfected cells
T3 sequence (O75751 1-556): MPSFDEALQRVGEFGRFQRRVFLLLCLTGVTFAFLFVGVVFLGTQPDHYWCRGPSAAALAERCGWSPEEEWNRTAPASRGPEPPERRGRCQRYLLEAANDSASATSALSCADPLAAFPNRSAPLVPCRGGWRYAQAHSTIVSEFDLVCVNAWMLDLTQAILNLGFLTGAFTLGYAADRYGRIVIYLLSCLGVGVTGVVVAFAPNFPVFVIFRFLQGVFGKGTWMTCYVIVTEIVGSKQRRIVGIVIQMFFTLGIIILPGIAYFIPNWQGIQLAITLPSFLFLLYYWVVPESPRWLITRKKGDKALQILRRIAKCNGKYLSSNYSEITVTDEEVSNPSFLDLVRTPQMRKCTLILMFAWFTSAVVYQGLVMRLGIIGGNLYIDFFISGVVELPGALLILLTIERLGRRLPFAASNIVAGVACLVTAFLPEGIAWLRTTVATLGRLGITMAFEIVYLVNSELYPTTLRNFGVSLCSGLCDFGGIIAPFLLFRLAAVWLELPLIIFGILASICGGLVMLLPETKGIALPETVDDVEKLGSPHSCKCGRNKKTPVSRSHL

[4] = target: T4, hOCT1 (Homo sapiens, UniProt O15245); experiment: [3H]MPP+ uptake inhibition assay, HEK293 cells stably expressing hOCT1; type: cell-based
T4 construct: expressed in transfected cells
T4 sequence (O15245 1-554): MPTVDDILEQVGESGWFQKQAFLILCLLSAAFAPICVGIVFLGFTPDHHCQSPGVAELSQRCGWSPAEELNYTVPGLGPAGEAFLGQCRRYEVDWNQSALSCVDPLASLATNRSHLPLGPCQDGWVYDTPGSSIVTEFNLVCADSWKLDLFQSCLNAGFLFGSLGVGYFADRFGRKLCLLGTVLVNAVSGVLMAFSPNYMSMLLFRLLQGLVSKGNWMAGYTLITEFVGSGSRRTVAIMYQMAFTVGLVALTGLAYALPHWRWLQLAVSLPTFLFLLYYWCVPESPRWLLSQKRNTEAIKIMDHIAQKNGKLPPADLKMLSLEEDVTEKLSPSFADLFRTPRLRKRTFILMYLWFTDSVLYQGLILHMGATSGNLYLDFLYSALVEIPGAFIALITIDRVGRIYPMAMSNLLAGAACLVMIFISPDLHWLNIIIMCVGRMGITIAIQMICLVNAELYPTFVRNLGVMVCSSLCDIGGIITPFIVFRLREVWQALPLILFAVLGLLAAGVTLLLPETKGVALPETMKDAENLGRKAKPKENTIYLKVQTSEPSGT
Experimental: as §1, §2, §3

[5] = target: T1, hOCT2; conditions: Table S1, supplementary reference list, cited from earlier work; for Ki: read-out: IC50 literature hOCT2 (Ki), Ki values; for IC50: read-out: IC50 literature hOCT2
[6] = target: T4, hOCT1; conditions: Table S1, supplementary reference list, cited from earlier work; for Ki: read-out: IC50 literature hOCT1 (Ki), Ki values; for IC50: read-out: IC50 literature hOCT1
[7] = target: T3, hOCT3; experiment: [3H]MPP+ uptake inhibition assay, HEK293 cells stably expressing hOCT3; type: cell-based
Experimental: as §1, §2, §3

[8] = system: mOCT3; set-up: method as in earlier work; conditions: Table S1, hOCT3 column, marked (mOCT3); supplementary reference list; read-out: IC50 literature (mOCT3); cited from earlier work
[9] = target: T2, hPMAT; conditions: Table S1, supplementary reference list, read-out: IC50 literature hPMAT, cited from earlier work

What does the source list for `C[C@H](N)Cc1ccccc1` [d-Amphetamine, d-amphetamine]?
IC50 [1]: 2.21 µM; IC50 [2]: 71.8 µM; IC50 ([3]; marked (5-HT), read-out: IC50 literature hOCT3 (5-HT)): 24.1 ± 70 µM; IC50 ([3]; marked (DA), read-out: IC50 literature hOCT3 (DA)): 41.5 ± 7.5 µM; Ki [3]: 460 ± 140 µM; IC50 ([3]; read-out: IC50 literature hOCT3, ref 8): 363 ± 56.4 µM; IC50 ([3]; read-out: IC50 literature hOCT3, ref 9): 42 ± 7 µM; IC50 [4]: 8.39 µM; Ki [5]: 10.5 ± 2.6 µM; IC50 [5]: 20.3 ± 16.9 µM; Ki [6]: 202 ± 68 µM; IC50 [6]: 96.7 ± 37 µM; IC50 [7]: 337 µM

Which IC50 [8] does the source give for `CN1C(=O)CN=C(c2ccccc2)c2cc(Cl)ccc21` [Diazepam, diazepam] here?
Its IC50 is 40 µM.

With `CNC1(c2ccccc2Cl)CCCCC1=O` (stereo not shown) [Ketamine, ketamine] as the molecule, how does the IC50 [1] read?
The IC50 was 12.5 µM.

And the IC50 [2]?
Its IC50 is 135 µM.

What about the “IC50 literature hOCT3 (Km)” value ([3]; Km) of the same molecule?
Its value is 52.9 ± 15.0 µM.

What about the Ki [3] of the same molecule?
Its Ki is 226 ± 65 µM.

What about the IC50 ([3]; read-out: IC50 literature hOCT3, ASP+ as substrate) of the same molecule?
Its IC50 is 440 µM.

And the IC50 [4]?
Its IC50 is 23.5 µM.

What about the “IC50 literature hOCT2 (Km)” value ([5]; Km) of the same molecule?
The value was 33.5 ± 20.3 µM.

And the Ki [5]?
The Ki was 22.7 ± 6.3 µM.

What about the “IC50 literature hOCT1 (Km)” value ([6]; Km) of the same molecule?
The value was 73.9 ± 15.2 µM.

And the Ki [6]?
Its Ki is 115 ± 43.7 µM.

What about the IC50 [7] of the same molecule?
Its IC50 is 1030 µM.

Which results are given for `CCCC(C(=O)c1ccccc1)N1CCCC1` (stereo not drawn) [α-PVP]?
IC50 ([9]; ref 13): 13.4 µM; IC50 ([3]; ref 13, read-out: IC50 literature hOCT3): 1630 µM; IC50 ([3]; ref 14, read-out: IC50 literature hOCT3): > 1000 µM; IC50 ([5]; ref 13): 5.62 µM; IC50 ([5]; ref 14): 17.5 ± 2.5 µM; IC50 ([6]; ref 13): 1.31 µM

Which IC50 ([9]; ref 3) does the source give for `CC(NC(C)(C)C)C(=O)c1cccc(Cl)c1` (stereo not shown) [Bupropion, bupropion] here?
The IC50 was 115 µM.

And the IC50 ([1]; HEK293 stably expressing hOCT2, 0.05 μM [3H]MPP+, 10 min pre-incubation, 10 min uptake, brackets in Table S1 = 95%-CI, n.s. = non-significant, read-out: IC50 hOCT2 (inhibitory potency, [3H]MPP+ uptake))?
The IC50 was 32.9 µM.

And the IC50 ([2]; HEK293 stably expressing hPMAT, 0.05 μM [3H]MPP+, 10 min pre-incubation, 10 min uptake, brackets in Table S1 = 95%-CI, n.s. = non-significant, read-out: IC50 hPMAT (inhibitory potency, [3H]MPP+ uptake))?
The IC50 was 97 µM.

What about the IC50 ([3]; ref 1, read-out: IC50 literature hOCT3) of the same molecule?
The IC50 was 738 µM.

What about the IC50 ([4]; HEK293 stably expressing hOCT1, 0.05 μM [3H]MPP+, 10 min pre-incubation, 10 min uptake, brackets in Table S1 = 95%-CI, n.s. = non-significant, read-out: IC50 hOCT1 (inhibitory potency, [3H]MPP+ uptake)) of the same molecule?
Its IC50 is 5.36 µM.

And the IC50 ([5]; ref 1)?
The IC50 was 28.6 µM.

What about the IC50 ([5]; ref 2) of the same molecule?
Its IC50 is 32.2 µM.

And the IC50 ([6]; ref 1)?
The IC50 was 161 µM.

What about the IC50 ([7]; HEK293 stably expressing hOCT3, 0.05 μM [3H]MPP+, 10 min pre-incubation, 10 min uptake, brackets in Table S1 = 95%-CI, n.s. = non-significant, read-out: IC50 hOCT3 (inhibitory potency, [3H]MPP+ uptake)) of the same molecule?
The IC50 was 186 µM.

Which results are given for `CN(C)CCCC1(c2ccc(F)cc2)OCc2cc(C#N)ccc21` (stereo not shown) [Citalopram]?
IC50 ([9]; ref 4): 117 µM; IC50 ([5]; ref 1): 115 µM; IC50 ([6]; ref 1): 13.2 µM
